SMILES strings stand for the structures.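 These data come from cells grown in 96-well plates and exposed to compound for 48 hours at five concentrations. GI50 is the concentration that inhibits growth by half. The concentration for full growth arrest is given as TGI.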

Some test systems named below: DU-145 prostate; HCC-2998 colon; HCT-15 colon; KM12 colon; MDA-MB-231 breast; OVCAR-5 ovarian; PC-3 prostate; SK-MEL-2 melanoma; SK-MEL-5 melanoma; T-47D breast.
Common to all, as to assay: NCI tumour cell line growth inhibition, 48 h

As to `CCC[C@H](N[C@@H]1CCc2cc(F)cc(F)c2C1)C(=O)Nc1cn(C(C)(C)CNCC(C)(C)C)cn1`, the GI50 with DU-145 prostate was 29.7 µM; in the experiment with HCC-2998 colon, 17.8 µM; in the experiment on HCT-15 colon it was 15.7 µM; in the experiment on KM12 colon, 24.1 µM; in the experiment on MDA-MB-231 breast, 10.2 µM; in the experiment with OVCAR-5 ovarian, 21.1 µM. Also, the GI50 in the experiment on PC-3 prostate was 7.63 µM; with SK-MEL-2 melanoma, 16.1 µM; in the experiment on SK-MEL-5 melanoma, 12.2 µM; with T-47D breast, 16 µM. In addition, the TGI in the experiment with DU-145 prostate is above 100 µM; in the experiment with HCC-2998 colon, above 81.1 µM; in the experiment with HCT-15 colon, 75.2 µM; in the experiment with KM12 colon, above 88.7 µM; in the experiment with MDA-MB-231 breast, 29.3 µM; in the experiment with OVCAR-5 ovarian it was above 77.7 µM. In addition, the TGI in the experiment with PC-3 prostate was 79.2 µM; in the experiment on SK-MEL-2 melanoma it was 35.4 µM; in the experiment with SK-MEL-5 melanoma, 24.8 µM; in the experiment on T-47D breast, above 65.4 µM.

For `COc1ccc(-c2n[nH]nc2-c2csc3ccccc23)cc1OC`, the GI50 in the experiment on DU-145 prostate was 3.77 µM; in the experiment with HCC-2998 colon it was 4.21 µM; with HCT-15 colon, 1.67 µM; in the experiment on KM12 colon it was 2.28 µM; with MDA-MB-231 breast, 3.21 µM; with OVCAR-5 ovarian, 7.91 µM. Further, the GI50 is 3.08 µM with PC-3 prostate, 1.44 µM in the experiment with SK-MEL-2 melanoma, 2.83 µM in the experiment on SK-MEL-5 melanoma and 2.83 µM in the experiment with T-47D breast. The TGI is above 100 µM in the experiment with DU-145 prostate; 19.4 µM in the experiment with HCC-2998 colon; 14.7 µM in the experiment on HCT-15 colon; 24.1 µM with KM12 colon; 35.5 µM in the experiment with MDA-MB-231 breast; above 100 µM with OVCAR-5 ovarian. The TGI in the experiment with PC-3 prostate is 35.4 µM; in the experiment on SK-MEL-2 melanoma it was 7.65 µM; in the experiment with SK-MEL-5 melanoma, 8.79 µM; in the experiment on T-47D breast it was 32.6 µM.

With `CCCCCCCCCCCCCCCc1cc(O)ccc1N`, the GI50 was above 100 µM in the experiment with DU-145 prostate; above 100 µM in the experiment with HCC-2998 colon; 45.8 µM in the experiment on HCT-15 colon; 7.43 µM with KM12 colon; above 31.1 µM in the experiment on MDA-MB-231 breast; 28 µM in the experiment with OVCAR-5 ovarian. For the same compound, the GI50 was 0.463 µM with PC-3 prostate, above 100 µM with SK-MEL-2 melanoma, above 100 µM in the experiment with SK-MEL-5 melanoma and 0.132 µM in the experiment with T-47D breast. The TGI in the experiment with DU-145 prostate, in the experiment with HCC-2998 colon, with HCT-15 colon, in the experiment on KM12 colon, in the experiment with MDA-MB-231 breast and in the experiment on OVCAR-5 ovarian was above 100 µM each time. The TGI is 10.6 µM in the experiment with PC-3 prostate, above 100 µM in the experiment with SK-MEL-2 melanoma, above 100 µM in the experiment on SK-MEL-5 melanoma and 1.76 µM in the experiment on T-47D breast.

Turning to `O=[N+]([O-])c1ccccc1N=Nc1c(O)[nH]c2ccccc12`, the TGI in the experiment on DU-145 prostate was above 89.8 µM; with HCC-2998 colon it was above 100 µM; with HCT-15 colon, above 100 µM; in the experiment with KM12 colon it was above 100 µM; in the experiment with MDA-MB-231 breast it was above 47.3 µM; with OVCAR-5 ovarian, above 100 µM. Moreover, the TGI in the experiment on PC-3 prostate was above 100 µM; in the experiment on SK-MEL-2 melanoma, above 100 µM; in the experiment with SK-MEL-5 melanoma, above 86.2 µM; in the experiment with T-47D breast it was above 100 µM.

Regarding `CCCN(CCC)c1ccc(CO)c(C)c1`, the GI50 in the experiment with DU-145 prostate was above 100 µM; in the experiment with HCC-2998 colon, above 100 µM; in the experiment with HCT-15 colon, 51.9 µM; in the experiment with KM12 colon, above 100 µM; in the experiment with MDA-MB-231 breast, 77.4 µM; in the experiment with OVCAR-5 ovarian, 13.1 µM. For the same compound, the GI50 was 17.4 µM with PC-3 prostate, 25.7 µM in the experiment on SK-MEL-2 melanoma, 18.9 µM in the experiment with SK-MEL-5 melanoma and 13.9 µM with T-47D breast. Also, the TGI in the experiment on DU-145 prostate is above 100 µM; with HCC-2998 colon, above 100 µM; in the experiment with HCT-15 colon, above 100 µM; in the experiment with KM12 colon it was above 100 µM; in the experiment with MDA-MB-231 breast, above 100 µM; in the experiment with OVCAR-5 ovarian it was 44.2 µM. In addition, the TGI in the experiment with PC-3 prostate amounted to 57.6 µM; in the experiment with SK-MEL-2 melanoma it was 78 µM; in the experiment with SK-MEL-5 melanoma, 62.3 µM; in the experiment with T-47D breast it was 33.5 µM.

As to `N#Cc1ccccc1C#C/C=C\C#Cc1ccc(OCCCNC(=O)c2cc3ccccc3[nH]2)cc1`, the GI50 with DU-145 prostate is 19.4 µM; in the experiment with HCC-2998 colon it was 74.9 µM; with HCT-15 colon, 26.2 µM; in the experiment with KM12 colon, 16.3 µM; with MDA-MB-231 breast, 13.3 µM; in the experiment on OVCAR-5 ovarian it was 21.3 µM. Also, the GI50 is 14.7 µM with PC-3 prostate, 20.5 µM in the experiment with SK-MEL-2 melanoma, 4.24 µM in the experiment with SK-MEL-5 melanoma and 12.4 µM in the experiment on T-47D breast. Further, the TGI in the experiment on DU-145 prostate is 78.9 µM; in the experiment on HCC-2998 colon, above 100 µM; with HCT-15 colon, above 100 µM; in the experiment on KM12 colon, 44.2 µM; in the experiment with MDA-MB-231 breast, 28.1 µM; in the experiment on OVCAR-5 ovarian it was 48.4 µM. The TGI came out at 45.2 µM with PC-3 prostate, 44.6 µM in the experiment with SK-MEL-2 melanoma, 20.2 µM in the experiment with SK-MEL-5 melanoma and 29.7 µM in the experiment on T-47D breast.

(Values after PubChem BioAssay (NCI).)
